Assay results as given in US20190262431A1, “CBL-FAMILY INHIBITOR COMPRISING A CBL-FAMILY TKB DOMAIN BINDING PEPTIDE FOR THE PREVENTION OR TREATMENT OF DISEASES” (IMBA - INSTITUT FÜR MOLEKULARE BIOTECHNOLOGIE GMBH, priority 2016, published 2019).
Non-standard residues stand in square brackets, D forms with d. Residues, ends and D or L forms follow the SMILES beside them. No end group written: not given here. *: point of attachment. pY = N[C@@H](Cc1ccc(OP(=O)(O)O)cc1)C(=O)O; Cbz = O=C(OCc1ccccc1)*

Key:
[1] = system: human CD8+ T cells; test: Human T cell assays (CFSE proliferation), CD8+ T cells; assay type: cell-based; conditions: plate bound CD3/CD28 antibodies; 3 days; CFSE dilution
Description: (§1) Peripheral blood mononuclear cells (PBMC) were purified from human blood using a Lymphoprep™ PBMC isolation kit (Stemcell Technologies), according to the manufacturer's instructions. Human CD4+ or CD8+ T cells were purified from PBMC using CD4 or CD8 MicroBeads (Miltenyi Biotec), respectively, and MACS technology (Miltenyi Biotec). For proliferation assays, flat-bottom 96-well plates were coated with CD3 (OKT3, 0.1 μg/ml) and CD28 (CD28.2, 0.1 μg/ml) antibodies in PBS at 37 degrees C. for 2 h. To monitor proliferative expansion, assays were carried out with carboxyfluorescein succinimidyl ester (CFSE; eBioscience) labeled T cells. T cells were cultured in X-VIVO 15 chemically defined, serum free hematopoietic cell medium (Lonza), with the indicated concentrations of peptide or vehicle control. After 72 h […], cells were labeled with antibodies against CD4 (RPA-T4, Brilliant Violet 510 labeled, Biolegend) or CD8 (RPA-T8, APC-eFluor 780 labeled, eBioscience), and CD69 (FN50, PE/Cy7 labeled, Biolegend), and analyzed on a Beckman Coulter Gallios flow cytometer. Data were analyzed using Beckman Coulter Kaluza software. IFN-γ secretion into cell culture supernatants of the proliferation assays was determined by enzyme-linked immunosorbent assays (ELISA) according to the manufacturer's (BD Biosciences) instructions.

[2] = system: human CD4+ T cells; test: Human T cell assays (CFSE proliferation, IFN-γ ELISA, CD69), CD4+ T cells; assay type: cell-based
Description: as §1

[3] = system: murine CD4+ T cells; test: Murine T cell proliferation assay; assay type: cell-based, mouse; conditions: for proliferative response of cblb Δ/Δ CD4+ T cells: CD3 or CD3 plus CD28 antibodies, versus untreated cells; for proliferative response of cblb Δ/Δ CD4+ T cells / proliferative response of cblb+/+ CD4+ T cells: 3 days; for proliferative response of cblb+/+ CD4+ T cells: plate bound CD3 or CD3 plus soluble CD28 antibodies, versus no peptide
Description: Murine CD4+ T cells were purified from pooled spleens and lymph nodes using MACS technology (Miltenyi Biotec). […] Purified T cells were labeled with the cell proliferation dye eFluor 670 (eBioscience) and cultured in IMDM cell culture medium (Gibco), supplemented with 10% fetal bovine serum (Sigma), L-Glutamine (Thermo Fisher), Penicillin and Streptomycin (Thermo Fisher), in the presence of 5 ng/ml of recombinant IL-2 (Biolegend) and the indicated concentrations of peptide. After 3 days, cells were stained with the fixable viability dye eFluor 780 (Thermo Fisher), and stained with a CD4 antibody (RM4-5, Brilliant Violet 711, Biolegend). Cells were analyzed with a BD LSR Fortessa II flow cytometer (Becton Dickinson), subsequently, and data were analyzed using the FlowJo v10.0.8 software (Tree Star).

[4] = system: Candida albicans; test: Systemic (intravenous) Candida albicans infection of mice; assay type: in vivo, mouse; conditions: control peptides versus untreated control cohort
Description: 8-10 week old mice were infected with 10^5 colony forming units (CFU) of C. albicans (strain SC5314), 10^5 colony forming units (CFU) of C. dubliniensis, or 10^5 CFUs of Listeria monocytogenes (strain EGD) intravenously. C. albicans CFUs were assessed from various organs as described (Wirnsberger et al., 2014). For clodronate or PBS liposome treatment experiments, mice were injected intraperitoneally with 100 ul/10 g mouse weight of liposomes both 24 h before and 24 h after intravenous C. albicans infections. Clodronate or PBS control liposomes were obtained from clodronateliposomes.org, and handled according to the manufacturer's instructions.

[5] = system: BM-DC; test: Killing assay (fungicidal activity against Candida albicans); assay type: cell-based, mouse; conditions: for BM-DC mediated Candida albicans killing in the presence of inhibitor: inhibitor added 30 min prior to stimulation
Description: To assess the fungicidal activity, the indicated immune cells were plated in replicates at a density of 1×10^5 cells/well in 96-well plates. Cells were incubated with Candida albicans at a multiplicity of infection of 1:500 for 24 h. After incubation, phagocytes were fixed by the addition of paraformaldehyde at a final concentration of 4%. Subsequently, Candida albicans were stained with Crystal Violet (Sigma) and killing was assessed by a comparison of colony numbers in wells with or without phagocytes.
(§2) BM-M and BM-DC were stimulated with C. albicans (strain SC5314), Zymosan (Invivogen), Curdlan (Invivogen), TDM (Invivogen), CpG (Invivogen), LPS (Invivogen), or C. albicans hyphae. For inhibition experiments cells were treated with the Syk inhibitor R406 (Selleckchem), anti-Dectin-1 antibody (Invivogen), MG132 (Calbiochem), or Dynasore (Sigma-Aldrich), 30 min prior to stimulation (MOI: Immune cell: C. albicans=1:2). Fungal isolates of Candida krusei, Candida glabrata, and Candida dubliniensis were kindly provided by the Allgemeines Krankenhaus Vienna (AKH). Fungal isoates were tested by PCR to verify the respective species.

[6] = system: BM-DC; test: ROS production by BM-DC co-cultured with Candida albicans (luminol assay); assay type: cell-based, mouse; conditions: Cbl-b+/+ BM-DC; 100 μM peptide; versus no peptide
Description: BM-DC or BM-M were obtained by differentiation from bone marrow precursor cells.

[7] = system: BM-DC; test: Cytokine secretion by Candida albicans stimulated BM-DC (ELISA); assay type: cell-based, mouse; conditions: 18 h
Description: Cytokine secretion by cell culture supernatants or in the peritoneal lavage was assessed with ELISA kits purchased from eBioscience (IL-1β, TNF, IL-6, IL-12, IL-23) or R&D Systems (IL-1Ra) according to the manufacturer's instructions. Production of reactive oxygen species (ROS) was measured with as assay using luminol as the probe in real-time over 90 min as described previously (Bourgeois et al., 2009). Caspase-8 activity was assessed using the CaspGLOW assay (Promega) according to the manufacturer's instructions.
as §2

[8] = system: B16-SIY melanoma cells; test: B16-SIY in vivo tumor model; design: species or system mouse; conditions: C57Bl/6 mice; 100 μg i.p. every other day
Description: B16-SIY tumor cells as described in (Spranger, 2014) were cultured in DMEM cell culture media (Gibco) supplemented with 10% fetal bovine serum (Sigma), L-Glutamine (Thermo Fisher), Penicillin and Streptomycin (Thermo Fisher). 10^6 tumor cells were transplanted intradermally into C57Bl/6 mice. Mice were injected intraperitoneally with 100 μg of the indicated peptides or vehicle control every other day starting 24 h after tumor cell inoculation. Bodyweight and tumor volume were measured at the indicated time points, subsequently.

[9] = system: phosphorylated Syk; test: Western blotting of Syk in Candida albicans stimulated BM-DC with MG132; assay type: cell-based, mouse; conditions: MG132 10 μM
Description: as §2
Western blotting was performed according to standard protocols. Blots were blocked for 1 hour with 5% bovine serum albumin in 1×TBS/0.1% Tween-20, or 4% BSA in 1×TBS/0.1% Tween-20 for phosphorylated epitopes, followed by overnight incubation at 4° C. with primary antibodies. Subsequently, blots were washed three times in 1×TBS/0.1% Tween-20 for 15 min, followed by incubation with HRP-conjugated secondary antibodies (1:2500; GE Healthcare # NA9340V) for 45 min at room temperature, washed three times in 1×TBS/0.1% Tween-20 for 15 min and visualized using enhanced chemiluminescence (ECL Plus, Pierce). […] Precipitates were analyzed by Western blotting using the indicated antibodies. […] Precipitates were analyzed by Western blotting with the indicated antibodies.

Compound: DRQIKIWFQNRRMKWKKSTVSFNPYEPELAPWA (DRQIKIWFQNRRMKWKKSTVSFNP[pY]EPELAPWA; listed as Homo sapiens) [H1]
- proliferative response of human CD8+ T cells [1]: dose dependent significant increase
- activation marker CD69 on T cells ([2]; percentage of CD69+ of total CD4+ cells, versus untreated cells): dose dependent upregulation
- proliferative response of human CD4+ T cells ([2]; plate bound CD3/CD28 antibodies, 3 days, CFSE dilution): dose dependent significant increase
- production of IFN-γ by CD4+ T cells ([2]; supernatants of proliferation assay, ELISA): increased significantly

Compound: KIKKTKKKGRKKIKKTKKKGRKSTPNFGVYGTSPWGPE (KIKKTKKKGRKKIKKTKKKGRKSTPNFGV[pY]GTSPWGPE; listed as Mus musculus) [M4]
- proliferative response of cblb Δ/Δ CD4+ T cells [3]: only mildly increased
- proliferative response of cblb+/+ CD4+ T cells [3]: only mildly increased

Compound: DRQIKIWFQNRRMKWKK [Antennapedia peptide, cell penetrating peptide derived from the Drosophila Antennapedia homeodomain, used alone as control]
- morbidity or mortality [4]: did not affect
- fungicidal activity (killing capacity) of BM-DC upon Candida albicans infection ([5]; 24 h co-culture, 100 μM peptide): did not affect
- ROS production by BM-DC in response to Candida albicans stimulation [6]: did not affect

Compound: O=C(N/N=C/c1ccc(O)c(O)c1)c1cc2ccccc2cc1O [Dynasore]
- BM-DC mediated Candida albicans killing in the presence of inhibitor [5]: abrogated

Compound: COc1cc(Nc2ncc(F)c(Nc3ccc4c(n3)NC(=O)C(C)(C)O4)n2)cc(OC)c1OC [R406]
- BM-DC mediated Candida albicans killing in the presence of inhibitor [5]: almost completely abrogated
- IL-1β secretion by Candida albicans stimulated BM-DC ([7]; BM-DC of all three genotypes): almost completely abrogated
- release of IL-6 by Candida albicans stimulated BM-DC ([7]; all three genotypes): almost completely abrogated
- release of TNF by Candida albicans stimulated BM-DC ([7]; all three genotypes): almost completely abrogated

Compound: CC[C@H](C)[C@H](NC(=O)[C@H](CCCCN)NC(=O)[C@@H](NC(=O)[C@H](CCC(N)=O)NC(=O)[C@H](CCCNC(=N)N)NC(=O)[C@@H](N)CC(=O)O)[C@@H](C)CC)C(=O)N[C@@H](Cc1c[nH]c2ccccc12)C(=O)N[C@@H](Cc1ccccc1)C(=O)N[C@@H](CCC(N)=O)C(=O)N[C@@H](CC(N)=O)C(=O)N[C@@H](CCCNC(=N)N)C(=O)N[C@@H](CCCNC(=N)N)C(=O)N[C@@H](CCSC)C(=O)N[C@@H](CCCCN)C(=O)N[C@@H](Cc1c[nH]c2ccccc12)C(=O)N[C@@H](CCCCN)C(=O)N[C@@H](CCCCN)C(=O)N[C@@H](CO)C(=O)N[C@H](C(=O)N1CCC[C@H]1C(=O)N[C@@H](CC(N)=O)C(=O)N[C@@H](Cc1ccccc1)C(=O)NCC(=O)N[C@H](C(=O)N[C@@H](Cc1ccc(OP(=O)(O)O)cc1)C(=O)NCC(=O)N[C@H](C(=O)N[C@@H](CO)C(=O)N1CCC[C@H]1C(=O)N[C@@H](Cc1c[nH]c2ccccc12)C(=O)NCC(=O)N1CCC[C@H]1C(=O)N[C@@H](CCC(=O)O)C(=O)O)[C@@H](C)O)C(C)C)[C@@H](C)O [M2]
- bodyweight gain [8]: did not affect

Compound: DRQIKIWFQNRRMKWKKEAVPLYAWYPNPSTFES (DRQIKIWFQNRRMKWKKEAVPLYAW[pY]PNPSTFES; listed as Homo sapiens) [H2]
- effects on proliferation, IFN-γ and CD69 of human T cells ([2]; scrambled control, compared with H1): Slight effects

Compound: CC(C)C[C@@H](C=O)NC(=O)[C@H](CC(C)C)NC(=O)[C@H](CC(C)C)NC(=O)OCc1ccccc1 [MG132] (Cbz-Leu-Leu-Leu-aldehyde)
- levels of phosphorylated Syk ([9]; Cbl-b Δ/Δ BM-DC stimulated with Candida albicans): did not change
- phosphorylated Syk in lysates ([9]; Cbl-b+/+ BM-DC stimulated with Candida albicans): increase

Compound: KIKKTKKKGRKKIKKTKKKGRKSTVSFNPYEPTGGPWG (KIKKTKKKGRKKIKKTKKKGRKSTVSFNP[pY]EPTGGPWG; listed as Mus musculus) [M3]
- proliferative response of cblb Δ/Δ CD4+ T cells [3]: marked increase
- effect on proliferation under suboptimal stimulatory conditions ([3]; low concentrations of CD3, with or without CD28 co-stimulation): more pronounced effects
- proliferative response of cblb+/+ CD4+ T cells [3]: dose dependent increase
